How the values were obtained:
N548 mutant cells = assay: in vitro
parental ST14A cells = assay: Cell death rescue in parental cells (selectivity counter screen); assay type: cell-based, rat; details: in words
Method: Cell death is indicated by a decrease in fluorescence. […] (with 5% CO2).
Identification of selective inhibitors of mutant-htt toxicity: As a first step towards probing mechanisms of action of these compounds, it was tested whether compounds selectively targeted pathways that are perturbed by mutant htt or if they suppressed a general death mechanism. Caspase activation was tested to see if it contributed to cell death in this model, since caspase-dependent pathways have been broadly implicated in cell death and in HD (Thornberry, N. and Y. Lazebnik, Science 1998, 281:1312-6; Sanchez Mejia, R and R. Friedlander Neuroscientist 2001, 7: 480-9; Hickey M. and M. Chesselet, Prog Neuropsychopharmacol Biol Psych 2003, 27: 255-65). Caspase activation was monitored via measuring the cleavage of specific fluorogenic caspase substrates. […] The decreased caspase activation in WT N548 cells was consistent with relative protection of these cells from cell death. […] Thus, the ability of a compound to rescue cell death in ST14A cells could be used as a selectivity filter to differentiate compounds that were selective for pathways selective for mutant htt induced cell death. The selectivity of rescue by a compound was determined by assessing rescue of cell death in parental ST14A cells. […]

caspases = assay: Caspase assay (fluorogenic AFC substrates); assay type: cell-based, rat; details: 50 μM; ST14A and N548 mutant cells, serum deprivation 39° C.
Method: Caspase activity was measured using a fluorogenic assay (Biovision Inc. CA), based on cleavage of AFC (7-amino-4-trifluoromethyl coumarin) from specific AFC-conjugated peptide substrates by activated caspases. Each cell line was seeded at 10^6 cells/plate, incubated overnight at 33° C., and then incubated for 6 h at 39° C. in 0.5% IFS containing medium with or without BOC-D-fmk (50 μM). Four plates/sample were harvested in lysis buffer provided by the manufacturer. Peptide substrates were added to the cell lysate or to lysis buffer (control), incubated at 37° C. for 2 h, and fluorescence (ex 355/em 510 nm) measured on a plate reader (Perkin Elmer Victor^3). Fluorescence intensities of controls were subtracted from sample intensity and the resulting value normalized to protein in each sample (Bradford Assay from BioRad; Hercules, Calif.).

RKO-E6 cells [1] = assay: Alamar Blue viability assay, RKO-E6; assay type: cell-based, human; details: for effect on doxorubicin's lethality in RKO-E6 cells: co-treatment with 0.5 μg/ml doxorubicin, 24 h
Method: (§1) RKO colon carcinoma, human (ATCC, order # CRL-2577), RKO-E6 colon carcinoma transfected with HPV E6 inserted in pCMV.3 (ATCC, order # CRL-2578) were grown in MEM with 2 mM L-glutamine and Earle's BBS adjusted to contain 1.5 g/L NaHCO3, 0.1 mM non-essential amino acids and 1.0 mM sodium pyruvate, and supplemented with 10% fetal bovine serum, penicillin and streptomycin (pen/strep). Both cell lines were incubated at 37° C. in a humidified incubator containing 5% CO2.
The Alamar Blue assay incorporates a fluorimetric/colorimetric growth indicator that changes color in the response to chemical reduction by viable cells (Nociari 1998). Cells were seeded at a density of 3,000 cells (57 μl) per well in a 384-well black, clear-bottom plates using a syringe bulk dispenser (Zymark Sciclone ALH). Three microliters were removed from a compound daughter plate using a 384 fixed cannula head and added to the assay plate, making the final concentration 4 μg/ml. The plates were incubated for 24 h at 37° C. 10 μl of 40% Alamar Blue (Biosource Int., cat #DAL1100) solution in media was added to each well (1:10 dilution). The assay plates were incubated for 16h. Fluorescence intensity was determined using a Packard Fusion platereader with a 535 nm excitation filter and a 590 nm emission filter. The average fluorescence for the whole plate was used as a positive control. Average percentage inhibition for each well was determined using our freely available SLIMS software (Kelley et al., 2004).
The daughter plates for the 2-fold dilution series were prepared with a Zymark Sciclone ALH by diluting the replica daughter plates to obtain compound concentrations from 8 μg/ml-0.008 μg/ml (columns 8-18). Columns 1-7 were used as untreated control. RKO-E6 cells were seeded at the density of 3,000 per well in 55 μl, and 5 μl were added from the daughter plate. RKO cells were seeded at the density of 2,000 per well in 55 μl, and 5 μl were added from the daughter plate. The assay was incubated for 24 h at 37° C. 10% Alamar Blue was added to each well and the assay was incubated for 16 h (see above). Compounds for retesting were purchased from the manufacturers or from Sigma-Aldrich (see above). Stocks were prepared in DMSO at 4 mg/ml.
(§2) Each cell line (RKO, RKO-E6, HeLa and TC32) was treated with a dose combination matrix of doxorubicin and a selected hit compound. Each treatment was done in a triplicate in 384-well format. The average percent inhibition of cell proliferation, measured with Alamar Blue, was determined using the following formula: […]

RKO cells [2] = assay: Alamar Blue viability assay, RKO; assay type: cell-based, human; details: in words
Method: as §1
The Alamar Blue assay incorporates a fluorimetric/colorimetric growth indicator that changes color in the response to chemical reduction by viable cells (Nociari 1998). Cells were seeded at a density of 3,000 cells (57 μl) per well in a 384-well black, clear-bottom plates using a syringe bulk dispenser (Zymark Sciclone ALH). […] Fluorescence intensity was determined using a Packard Fusion platereader with a 535 nm excitation filter and a 590 nm emission filter. The average fluorescence for the whole plate was used as a positive control. Average percentage inhibition for each well was determined using our freely available SLIMS software (Kelley et al., 2004). […]
Each cell line (RKO, RKO-E6, HeLa and TC32) was treated with a dose combination matrix of doxorubicin and a selected hit compound. […] The average percent inhibition of cell proliferation, measured with Alamar Blue, was determined using the following formula: […]

[3] = system: HeLa, TC32, A673, BJELR cells; assay: Alamar Blue viability assay, other cancer cell lines; assay type: cell-based; details: TC32 (A673 for T55D7)
Method: as §2

p53 = assay: Western blot of p53 (p21, MDM2) levels; assay type: cell-based, human; details: RKO-E6 cells; in words
Method: Protein content was quantified using a BioRad protein assay reagent (BioRad, cat #500-0006). Equal amounts of protein were resolved on SDS-polyacrylamide gels. Proteins were transferred onto a PVDF membrane, blocked with 5% milk, and incubated with the appropriate primary and secondary antibodies. […] To test for equivalent loading in each lane, blots were stripped, blocked and probed with an anti-eIF-4E antibody.

RKO-E6 cells [4] = assay: Flow cytometry cell cycle distribution, RKO-E6; assay type: cell-based, human; details: 24 h, propidium iodide
Method: (§3) RKO, RKO-E6 or HeLa cells were seeded in 20-cm dishes in 10 ml of growth medium. Cells were allowed to adhere and then treated with the selected compounds for 24 h. The treated cells were collected, washed 2× with PBS and counted. The cell pellet was re-suspended in 500 μl of ice cold PBS and 2-5 ml of cold 70% ethanol (−20° C.) were added. Cells were fixed for 1 h or overnight. 5-10 million cells were placed into a 15-ml conical tube and centrifuged at 1000 g. Cells were washed 2× with 1% calf serum in PBS. Cells were resuspended in 800 μl of 1% calf serum in PBS and 100 μl of Rnase (1 mg/ml) and 100 μl of propidium iodide (400 μg/ml) added. Cells were incubated at 37° C. for 30 min and then analyzed on flow cytometer.

RKO cells [5] = assay: Flow cytometry cell cycle distribution, RKO; assay type: cell-based, human; details: 24 h, propidium iodide
Method: as §3

N2 worms = details: 6 mM; cited from earlier work
topoisomerase IIα = assay: Western blot of topoisomerase IIα level; assay type: cell-based, human; details: RKO and/or RKO-E6 cells; in words
Text: Antibodies were obtained form the following suppliers: p53 (Oncogene/Calbiochem, cat #OP43), p21 (Santa Cruz Biotechnology inc., cat #sc-817), MDM2 (Santa Cruz Biotechnology Inc., cat #sc-965), Topoisomerase IIα (TopoGEN, cat #2011-1), Topoisomerase I (BD PharMingen, cat #556597), Cyclin B (BD Transduction Laboratories, cat #610219), Cyclin A (BD Transduction Laboratories, cat #611268), Anti-Fluorescein-HRP (Molecular Probes, cat #A21253), Anti-biotin-HRP (Cell Signaling Technology, cat #7075, Jackson ImmunoResearch Laboratories, cat #200-032-096), eIF4E (Santa Cruz Biotechnology Inc., cat #sc-9976 HRP).
Cells were lysed in denaturing lysis buffer (50 mM HEPES KOH [pH 7.4], 40 mM NaCl, 2 mM EDTA, 1.5 mM Na3VO4, 50 mM NaF, 10 mM sodium pyrophosphate, 10 mM sodium β-glycerophosphate, 0.5% Triton X-100, and protease inhibitor tablet [Roche, cat #11777700]). Protein content was quantified using a BioRad protein assay reagent (BioRad, cat #500-0006). Equal amounts of protein were resolved on SDS-polyacrylamide gels. Proteins were transferred onto a PVDF membrane, blocked with 5% milk, and incubated with the appropriate primary and secondary antibodies. […]

For `COC(=O)CC(NC(=O)OC(C)(C)C)C(=O)CF` [BOC-D-fmk, reference compound], the “rescue of cell death in mutant N548 cells” value (N548 mutant cells; in words) was “rescued cell death”, the EC50 (N548 mutant cells; nonselective hits (rescue also parental ST14A), 0.5% IFS, 39° C., 3 d) was 25 µM and the TC50 (N548 mutant cells; nonselective hits, maximum concentration tested 80 μM) was “ND(80)”. The Activity (N548 mutant cells; nonselective hits, scale not defined) was 3, the “rescue of cell death in parental ST14A cells” value (parental ST14A cells) was “rescued cell death” and the caspase activation (caspases) was “prevented caspase activation”.

For `S=C1N(CN2CCOCC2)CCN1CN1CCOCC1` [Compound T55D7, 1,3-bis(4-morpholinylmethyl)-2-imidazolidinethione], the “concentrations with doxorubicin-independent lethality” value (RKO-E6 cells [1]; absence of doxorubicin) was 30 to 100 µM, the “effect on doxorubicin's lethality in RKO-E6 cells” value (RKO-E6 cells [1]; in words) was “increase both doxorubicin's and camptothecin's lethality” and the “effect on camptothecin's lethality” value (RKO-E6 cells [1]; co-treatment with camptothecin, in words) was “increase both doxorubicin's and camptothecin's lethality”. The “effect on podophyllotoxin's lethality” value (RKO-E6 cells [1]; co-treatment with podophyllotoxin, in words) was “did not increase the microtubule inhibitor podophylotoxin's lethality”, the “Bliss Independence analysis of combination with doxorubicin” value (RKO-E6 cells [1]; combination dose matrix) was “exceeded Bliss Independence with doxorubicin at multiple doses” and the “effect on doxorubicin's lethality in RKO cells” value (RKO cells [2]) was “increase both doxorubicin's and camptothecin's lethality”. For the same compound, the “effect on doxorubicin's potency in other cell lines” value [3] was “upregulated doxorubicin's potency in other cell lines”, the “p53, p21, MDM2 levels” value (p53) was “did not change p53 concentration” and the “cell cycle effect in RKO-E6 cells” value (RKO-E6 cells [4]) was “pronounced S-phase arrest”. The “cell cycle effect in RKO cells” value (RKO cells [5]) was “virtually no changes in the cell cycle”.

For `C[n+]1ccc(-c2cc[n+](C)cc2)cc1` [Paraquat], the toxicity in worms (N2 worms) is listed as “toxic”.

For `C[C@@H]1C[C@@H]([C@H](O)CC2CC(=O)NC(=O)C2)C(=O)[C@@H](C)C1` [cycloheximide], the “effect on doxorubicin's lethality in RKO-E6 cells” value (RKO-E6 cells [1]; in words) was “potentiated doxorubicin's lethality”, the “p53, p21, MDM2 levels” value (p53) was “caused a disappearance of p53 and p21” and the “topoisomerase IIα levels” value (topoisomerase IIα) was “caused increased topoisomerase IIα levels”.
